# Reference: patent publication US20040006236A1, “Diaminopropionic acid derivatives” (priority 1999, published 2004)
# Assays:
# [1] = molecular target: T1, ICAM-1 binding to immobilized Mac-1 (Homo sapiens, UniProt P05107+P11215); experiment: Mac-1/ICAM-1 screening assay (solid-phase ELISA); settings: read-out: Mac-1/ICAM-1 Protein-Protein Assay IC50
# T1 construct: made in house; host or cells: transfected 293 cells (Mac-1)
# In short: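 Competitive solid-phase ELISA: membrane Mac-1 from transfected 293 cells coated at 3 μg/mL in 20 mM Hepes pH 7.2/0.14 M NaCl/1 mM MnCl2; compounds (0.12 nM-20 μM, 1:4 series) plus 5dICAM-Ig (40 μg/mL, added) 2 h at 37° C. Bound ICAM-Ig detected with HRP anti-human IgG Fc, TMB, A450; IC50 reported.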
# [2] = tested on: T lymphocyte proliferation (C57BI/6 spleen cells with irradiated BALB/c spleen cells); experiment: Mixed lymphocyte reaction (MLR), one-way; type: cell-based, mice; settings: Mus musculus, T-lymphocyte; read-out: MLR IC50
# In short: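 Irradiated BALB/c spleen cells mixed with C57BI/6 spleen cells in RPMI1640/10% heat-inactivated FBS/2-mercaptoethanol, with serial antagonist dilutions; 3 days at 5% CO2. Tritiated thymidine (0.5 μCi/well) added on day 3; incorporation counted by liquid scintillation after a further 6 h.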
# [3] = tested on: cell-surface Mac-1 adhesion to immobilized fibrinogen (HL-60 cells); experiment: Mac-1/Fibrinogen cell-based screening assay; set-up: species or system human; settings: Homo sapiens, HL-60, HL-60 cells; read-out: Mac-1/Fgn Cell based Assay IC50
# In short: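 Wells coated with fibrinogen and blocked with PVP. Labeled HL-60 cells (2×10^6 cells/mL in RPMI/0.05% BSA/0.2 mM MnCl2) preincubated with DMSO-diluted compounds for 10 min at 37° C, then left to adhere 30 min at 37° C/5% CO2. Unbound cells washed off with TBS.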
# T1 sequence (P05107 23-769, other chains not shown): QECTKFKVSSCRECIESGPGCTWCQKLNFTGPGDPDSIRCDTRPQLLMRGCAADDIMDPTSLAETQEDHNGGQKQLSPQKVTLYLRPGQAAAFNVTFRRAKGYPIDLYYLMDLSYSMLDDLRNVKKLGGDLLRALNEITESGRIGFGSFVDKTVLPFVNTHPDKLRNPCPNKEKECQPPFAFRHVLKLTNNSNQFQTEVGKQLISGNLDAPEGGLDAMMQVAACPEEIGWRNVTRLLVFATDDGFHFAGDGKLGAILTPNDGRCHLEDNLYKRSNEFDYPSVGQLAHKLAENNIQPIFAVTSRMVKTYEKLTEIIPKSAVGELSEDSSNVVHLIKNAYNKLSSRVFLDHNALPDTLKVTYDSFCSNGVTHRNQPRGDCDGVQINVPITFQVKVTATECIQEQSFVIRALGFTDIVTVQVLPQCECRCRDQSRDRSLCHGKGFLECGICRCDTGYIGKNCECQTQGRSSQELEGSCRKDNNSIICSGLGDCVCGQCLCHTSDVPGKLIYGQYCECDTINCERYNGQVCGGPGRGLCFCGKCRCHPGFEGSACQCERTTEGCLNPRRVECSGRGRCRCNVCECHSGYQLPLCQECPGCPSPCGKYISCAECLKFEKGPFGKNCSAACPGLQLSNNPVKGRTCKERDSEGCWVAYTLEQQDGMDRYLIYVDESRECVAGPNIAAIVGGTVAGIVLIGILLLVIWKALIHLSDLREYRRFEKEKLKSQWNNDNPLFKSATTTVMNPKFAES
Structure (SMILES),IC50 [1] [nM],IC50 [3] [nM],IC50 [2] [nM]
"O=C(NCc1cccc(O)c1)c1ccc(C(=O)N[C@@H](CNC(=O)c2cc(F)cc(F)c2)C(=O)O)c(Cl)c1 [Example 252, N-[2-chloro-4-[[[(3-hydroxyphenyl)methyl]amino]carbonyl]benzoyl]-3-(3,5-difluorobenzoyl)amino-L-alanine]",6.8,19,340
O=C(NCc1cccc(O)c1)c1ccc(C(=O)N[C@@H](CNC(=O)c2csnn2)C(=O)O)c(Cl)c1 [Example 254],11,31,460
O=C(NCc1cccc(O)c1)c1ccc(C(=O)N[C@@H](CNC(=O)c2ccno2)C(=O)O)c(Cl)c1 [Example 256],14,24,525
COc1cscc1C(=O)NC[C@H](NC(=O)c1ccc(C(=O)NCc2cccc(O)c2)cc1Cl)C(=O)O [Example 257],23,87,1400
"NCCCC(=O)NC[C@H](NC(=O)c1ccc(C(=O)NCc2cccc(O)c2)cc1Cl)C(=O)O [Example 261, N-[2-chloro-4-[[[(3-hydroxyphenyl)methyl]amino]-carbonyl]benzoyl]-3-(4-aminobutanoylamino)-L-alanine]",11,46,780

# Further lines, with some results ahead:
IC50 [1] [nM],IC50 [3] [nM],Structure (SMILES),IC50 [2] [nM]
15,49,O=C(NCc1cccc(O)c1)c1ccc(C(=O)N[C@@H](CNC(=O)C2CCNCC2)C(=O)O)c(Cl)c1 [Example 262],1800
31,74,"O=C(NCc1cccc(O)c1)c1ccc(C(=O)N[C@@H](CNC(=O)c2ccccc2)C(=O)O)c(Cl)c1 [Example 302, 3-benzoylamino-N-[2-chloro-4-[[[(3-hydroxyphenyl)methyl]amino]carbonyl]benzoyl]-L-alanine]",310
6.4,8.7,"O=C(NCc1cccc(O)c1)c1ccc(C(=O)N[C@@H](CNC(=O)c2cccs2)C(=O)O)c(Cl)c1 [Example 303, N-[2-chloro-4-[[[(3-hydroxyphenyl)methyl]amino]carbonyl]benzoyl]-3-(thiophene-2-carbonyl)amino-L-alanine]",70
40,162,"O=C(NCc1cccc2[nH]ccc12)c1ccc(C(=O)N[C@@H](CNC(=O)c2ccccc2)C(=O)O)c(Cl)c1 [Example 314, 3-(benzoylamino)-N-[2-chloro-4-[[(1H-indol-4-ylmethyl)amino]carbonyl]benzoyl]-L-alanine]",625
21,2.2,"Cc1cc(C(=O)NCc2cccc(O)c2)cc(Cl)c1C(=O)N[C@@H](CNC(=O)c1cccs1)C(=O)O [Example 338, N-[2-chloro-4-[[[(3-hydroxyphenyl)methyl]amino]carbonyl]-6-methylbenzoyl]-3-[(thiophene-2-carbonyl)amino]-L-alanine]",21
